Measured values: ChEMBL document CHEMBL1131921, “Diamino benzo[b]thiophene derivatives as a novel class of active site directed thrombin inhibitors: 3. Enhancing activity by imposing conformational restriction in the C-4" side chain” (Bioorg Med Chem Lett, 1999)

Target: Prothrombin (Homo sapiens) (UniProt P00734)
Test: Binding affinity for human Prothrombin as apparent association constant (Kass)

Row | SMILES | K ass
1 | C(=C\c1ccc(Cc2c(-c3ccc(OCCN4CCCC4)cc3)sc3ccccc23)cc1)/CN1CCCC1 (stereo in doubt; cis) | 9.8e+06 l M-1
2 | CCC(CN1CCCC1)Oc1ccc(Cc2c(-c3ccc(OCCN4CCCC4)cc3)sc3ccccc23)cc1 (configuration not stated) | 1.23e+07 l M-1
3 | C[C@@H](COc1ccc(Cc2c(-c3ccc(OCCN4CCCC4)cc3)sc3ccccc23)cc1)N1CCCC1 | 9.07e+06 l M-1
4 | CC(COc1ccc(Cc2c(-c3ccc(OCCN4CCCC4)cc3)sc3ccccc23)cc1)N1CCCC1 (configuration not stated) | 7.34e+06 l M-1
5 | CC(C)(COc1ccc(Cc2c(-c3ccc(OCCN4CCCC4)cc3)sc3ccccc23)cc1)N1CCCC1 | 4.69e+06 l M-1
6 | c1ccc2c(Cc3ccc(CCCN4CCCC4)cc3)c(-c3ccc(OCCN4CCCC4)cc3)sc2c1 | 6.7e+06 l M-1
7 | C(#Cc1ccc(Cc2c(-c3ccc(OCCN4CCCC4)cc3)sc3ccccc23)cc1)CN1CCCC1 | 4.84e+06 l M-1
8 | C[C@H](COc1ccc(Cc2c(-c3ccc(OCCN4CCCC4)cc3)sc3ccccc23)cc1)N1CCCC1 | 4.17e+06 l M-1
9 | c1ccc2c(Cc3ccc(O[C@@H]4CCC[C@H]4N4CCCC4)cc3)c(-c3ccc(OCCN4CCCC4)cc3)sc2c1 | 2.74e+07 l M-1
10 | CCC(COc1ccc(Cc2c(-c3ccc(OCCN4CCCC4)cc3)sc3ccccc23)cc1)N1CCCC1 (configuration not stated) | 2.81e+07 l M-1
11 | C(=C\c1ccc(Cc2c(-c3ccc(OCCN4CCCC4)cc3)sc3ccccc23)cc1)/CN1CCCC1 (stereo in doubt; trans) | 1.32e+07 l M-1
12 | c1ccc2c(Cc3ccc(O[C@@H]4CCCC[C@H]4N4CCCC4)cc3)c(-c3ccc(OCCN4CCCC4)cc3)sc2c1 | 2.4e+07 l M-1
